The first experiment deals with T1, mouse GnRH receptor (Mus musculus, UniProt Q01776).
T1 construct: expressed in transfected cells; host or cells: 293 cells
T1 sequence (Q01776 1-327): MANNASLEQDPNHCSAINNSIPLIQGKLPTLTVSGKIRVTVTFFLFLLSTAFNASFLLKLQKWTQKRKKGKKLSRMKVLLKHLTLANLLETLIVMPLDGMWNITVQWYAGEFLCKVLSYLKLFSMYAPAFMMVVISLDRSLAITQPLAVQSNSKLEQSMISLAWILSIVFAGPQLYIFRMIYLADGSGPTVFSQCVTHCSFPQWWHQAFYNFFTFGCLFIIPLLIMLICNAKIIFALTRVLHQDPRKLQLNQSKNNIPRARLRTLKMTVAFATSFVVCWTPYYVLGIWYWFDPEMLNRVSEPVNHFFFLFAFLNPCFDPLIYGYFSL
The experiment in a line: Radioligand binding, 125I-GnRH-A, 293 cells expressing mouse GnRH receptors. To be noted: 1 h, substrate remaining; 10 uM compound; closer to zero = closer to 100% inhibition; read-out: S%R 10 uM mGnRHR. The method, boiled down:
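Bound label captured on 0.1% polyethyleneimine-treated GF/C filters, washed three times with PBS, counted. IC50 derived; identical set-up for every species.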
Turning to `Cc1cc2c(cc1Cc1ccc(C(=O)NCCCNCCCCNCCCN)o1)C(C)(C)CCC2(C)C` [Compound 472], the remaining activity at 10 µM came to 42%.

On to `Cc1cc2c(cc1Cc1ccc(C(=O)NC3CCCC(Nc4ccnc(NCC5CCCO5)n4)C3)o1)C(C)(C)CCC2(C)C` (centres unmarked) [Compound 473], for which the remaining activity at 10 µM was -14%.

Consider `COc1ccc(C(=O)CNC(=O)c2ccc(Cc3cc4c(cc3C)C(C)(C)CCC4(C)C)o2)cc1` [Compound 474], for which the remaining activity at 10 µM was found to be 39%.

For the compound `Cc1cc2c(cc1Cc1ccc(C(=O)NCCCN3CCN(C)CC3)o1)C(C)(C)CCC2(C)C` [Compound 475], the remaining activity at 10 µM was -3%.

In the case of `CC(=O)NCCNC(=O)c1ccc(Cc2cc3c(cc2C)C(C)(C)CCC3(C)C)o1` [Compound 476], the remaining activity at 10 µM stood at 20%.

For the compound `Cc1cc2c(cc1Cc1ccc(C(=O)Nc3ccc4[nH]c(-c5ccccn5)nc4c3)o1)C(C)(C)CCC2(C)C` [Compound 477], the remaining activity at 10 µM worked out at 47%.

Regarding `Cc1cc2c(cc1Cc1ccc(C(=O)NCc3ccc(-c4csnn4)cc3)o1)C(C)(C)CCC2(C)C` [Compound 478], the remaining activity at 10 µM was found to be 3%.

As for `Cc1cc2c(cc1Cc1ccc(C(=O)NCC3CCC(C(=O)O)CC3)o1)C(C)(C)CCC2(C)C` (centres unmarked) [Compound 479], the remaining activity at 10 µM is -3%.

For the compound `Cc1cc2c(cc1Cc1ccc(C(=O)N3CCN(c4cccc(NCC5CCCO5)n4)CC3)o1)C(C)(C)CCC2(C)C` (centres unmarked) [Compound 480], the remaining activity at 10 µM was -2%.

Take `Cc1cc2c(cc1Cc1ccc(C(=O)NC3CCCCC3Nc3ccnc(NCC4CCCO4)n3)o1)C(C)(C)CCC2(C)C` (centres unmarked) [Compound 481]: the remaining activity at 10 µM turned out to be 5%.

For the compound `Cc1cc2c(cc1Cc1ccc(C(=O)NCCc3ccc([N+](=O)[O-])cc3)o1)C(C)(C)CCC2(C)C` [Compound 482], the remaining activity at 10 µM turned out to be 34%.

For `Cc1cc2c(cc1Cc1ccc(C(=O)NCC3CCNCC3)o1)C(C)(C)CCC2(C)C` [Compound 483], the remaining activity at 10 µM worked out at 10%.

On to `Cc1cc2c(cc1Cc1ccc(C(=O)NCc3ccc4c(c3)OCO4)o1)C(C)(C)CCC2(C)C` [Compound 484], for which the remaining activity at 10 µM was -1%.

In the case of `Cc1cc2c(cc1Cc1ccc(C(=O)NCCc3ccncc3)o1)C(C)(C)CCC2(C)C` [Compound 485], the remaining activity at 10 µM was -5%.

Take `Cc1cc2c(cc1Cc1ccc(C(=O)NC3CCC(c4nccc(NCC5CCCO5)n4)C3)o1)C(C)(C)CCC2(C)C` (centres unmarked) [Compound 486]: the remaining activity at 10 µM amounted to 33%.

In the case of `Cc1cc2c(cc1Cc1ccc(C(=O)NCCCCNc3nccc(NCC4CCCO4)n3)o1)C(C)(C)CCC2(C)C` (centres unmarked) [Compound 487], the remaining activity at 10 µM came out at 3%.

Take `Cc1cc2c(cc1Cc1ccc(C(=O)NCCN3CCCCC3)o1)C(C)(C)CCC2(C)C` [Compound 488]: the remaining activity at 10 µM was -3%.

Take `COc1ccc(CCNC(=O)c2ccc(Cc3cc4c(cc3C)C(C)(C)CCC4(C)C)o2)cc1OC` [Compound 489]: the remaining activity at 10 µM is -1%.

As to `COc1cc(CNC(=O)c2ccc(Cc3cc4c(cc3C)C(C)(C)CCC4(C)C)o2)cc(OC)c1` [Compound 490], the remaining activity at 10 µM was found to be 4%.

Consider `Cc1cc2c(cc1Cc1ccc(C(=O)NCC3CCN(c4nccc(NCC5CCCO5)n4)CC3)o1)C(C)(C)CCC2(C)C` (centres unmarked) [Compound 491], for which the remaining activity at 10 µM is 9%.

Regarding `Cc1cc2c(cc1Cc1ccc(C(=O)NCC3CCCC(CNc4nccc(NCC5CCCO5)n4)C3)o1)C(C)(C)CCC2(C)C` (centres unmarked) [Compound 492], the remaining activity at 10 µM is -7%.

Turning to `COC(=O)CCCCCNC(=O)c1ccc(Cc2cc3c(cc2C)C(C)(C)CCC3(C)C)o1` [Compound 493], the remaining activity at 10 µM is -6%.

As for `Cc1cc2c(cc1Cc1ccc(C(=O)NCCCN3CCCCC3C)o1)C(C)(C)CCC2(C)C` (centres unmarked) [Compound 494], the remaining activity at 10 µM was -7%.

Take `COc1cccc(CCNC(=O)c2ccc(Cc3cc4c(cc3C)C(C)(C)CCC4(C)C)o2)c1` [Compound 495]: the remaining activity at 10 µM amounted to 4%.

With `Cc1cc2c(cc1Cc1ccc(C(=O)NCCCN(C)CCCN)o1)C(C)(C)CCC2(C)C` [Compound 496], the remaining activity at 10 µM is -6%.

For `Cc1cc2c(cc1Cc1ccc(C(=O)NCc3ccc(C(=O)O)cc3)o1)C(C)(C)CCC2(C)C` [Compound 497], the remaining activity at 10 µM is 2%.

As for `CNCCCNC(=O)c1ccc(Cc2cc3c(cc2C)C(C)(C)CCC3(C)C)o1` [Compound 498], the remaining activity at 10 µM worked out at 58%.

Take `Cc1cc2c(cc1Cc1ccc(C(=O)NCC3CN(Cc4ccccc4)CCO3)o1)C(C)(C)CCC2(C)C` (centres unmarked) [Compound 499]: the remaining activity at 10 µM is 1%.

On to `Cc1cc2c(cc1Cc1ccc(C(=O)NCc3nc4ccccc4[nH]3)o1)C(C)(C)CCC2(C)C` [Compound 500], for which the remaining activity at 10 µM was -4%.

With `Cc1cc2c(cc1Cc1ccc(C(=O)NCc3ccccn3)o1)C(C)(C)CCC2(C)C` [Compound 501], the remaining activity at 10 µM is -3%.

Turning to `COc1cc(CNC(=O)c2ccc(Cc3cc4c(cc3C)C(C)(C)CCC4(C)C)o2)cc(OC)c1OC` [Compound 502], the remaining activity at 10 µM was -2%.

As for `Cc1cc2c(cc1Cc1ccc(C(=O)NCCc3ccc(N)cc3)o1)C(C)(C)CCC2(C)C` [Compound 503], the remaining activity at 10 µM was -3%.

In the case of `Cc1cc2c(cc1Cc1ccc(C(=O)NCCc3cccc(Oc4ccccc4)c3)o1)C(C)(C)CCC2(C)C` [Compound 504], the remaining activity at 10 µM worked out at 46%.

For `Cc1cc2c(cc1Cc1ccc(C(=O)NCCCN3CCCCC3)o1)C(C)(C)CCC2(C)C` [Compound 505], the remaining activity at 10 µM amounted to 7%.

As to `COc1cc(CCNC(=O)c2ccc(Cc3cc4c(cc3C)C(C)(C)CCC4(C)C)o2)cc(OC)c1O` [Compound 506], the remaining activity at 10 µM stood at 3%.

In the case of `Cc1cc2c(cc1Cc1ccc(C(=O)NCCc3ccccn3)o1)C(C)(C)CCC2(C)C` [Compound 507], the remaining activity at 10 µM is -4%.

In the case of `COc1ccc(OC)c(CCNC(=O)c2ccc(Cc3cc4c(cc3C)C(C)(C)CCC4(C)C)o2)c1` [Compound 508], the remaining activity at 10 µM came to 7%.

With `Cc1cc2c(cc1Cc1ccc(C(=O)NCCc3c[nH]c4ccc(Cl)cc34)o1)C(C)(C)CCC2(C)C` [Compound 509], the remaining activity at 10 µM stood at 16%.

For the compound `Cc1cc2c(cc1Cc1ccc(C(=O)NCC(F)(F)F)o1)C(C)(C)CCC2(C)C` [Compound 510], the remaining activity at 10 µM turned out to be 23%.

`Cc1cc2c(cc1Cc1ccc(C(=O)NCc3cccc(NC(=O)N(Cc4ccccc4)c4ccccc4)c3)o1)C(C)(C)CCC2(C)C` [Compound 511]: the remaining activity at 10 µM is 47%.

Consider `Cc1cc2c(cc1Cc1ccc(C(=O)NCCc3ccccc3Oc3ccccc3)o1)C(C)(C)CCC2(C)C` [Compound 512], for which the remaining activity at 10 µM is 51%.

Take `Cc1cc2c(cc1Cc1ccc(C(=O)NCCc3c[nH]cn3)o1)C(C)(C)CCC2(C)C` [Compound 513]: the remaining activity at 10 µM came out at 9%.

In the case of `Cc1cc2c(cc1Cc1ccc(C(=O)NCCNc3nccc(NCC4CCCO4)n3)o1)C(C)(C)CCC2(C)C` (centres unmarked) [Compound 514], the remaining activity at 10 µM came to 2%.

As to `Cc1cc2c(cc1Cc1ccc(C(=O)NCCN3CCCC3)o1)C(C)(C)CCC2(C)C` [Compound 515], the remaining activity at 10 µM is 11%.

`Cc1cc2c(cc1Cc1ccc(C(=O)NCc3ccccc3C(F)(F)F)o1)C(C)(C)CCC2(C)C` [Compound 516]: the remaining activity at 10 µM is 21%.

As for `Cc1cc2c(cc1Cc1ccc(C(=O)Nc3nc(N(C)C)nc4nc[nH]c34)o1)C(C)(C)CCC2(C)C` [Compound 517], the remaining activity at 10 µM was determined as 34%.

With `Cc1cc2c(cc1Cc1ccc(C(=O)NCc3cccc4c3OC3C=CC=CC43)o1)C(C)(C)CCC2(C)C` (centres unmarked) [Compound 518], the remaining activity at 10 µM amounted to 56%.

Consider `Cc1cc2c(cc1Cc1ccc(C(=O)NCc3ccc(F)c(F)c3)o1)C(C)(C)CCC2(C)C` [Compound 519], for which the remaining activity at 10 µM is 0%.

As for `Cc1cc2c(cc1Cc1ccc(C(=O)NCCN3CCNC3=O)o1)C(C)(C)CCC2(C)C` [Compound 520], the remaining activity at 10 µM is -3%.

`Cc1cc2c(cc1Cc1ccc(C(=O)NCc3ccc(S(N)(=O)=O)cc3)o1)C(C)(C)CCC2(C)C` [Compound 521]: the remaining activity at 10 µM came to 51%.

Take `Cc1cc2c(cc1Cc1ccc(C(=O)NCC3CCN(C(N)N)CC3)o1)C(C)(C)CCC2(C)C` [Compound 522]: the remaining activity at 10 µM was 9%.

Regarding `Cc1cc2c(cc1Cc1ccc(C(=O)NCCN3CCOCC3)o1)C(C)(C)CCC2(C)C` [Compound 523], the remaining activity at 10 µM is -4%.

On to `Cc1cc2c(cc1Cc1ccc(C(=O)NCCc3ccc(Cl)cc3Cl)o1)C(C)(C)CCC2(C)C` [Compound 524], for which the remaining activity at 10 µM was found to be 35%.

For the compound `Cc1cnc(CNC(=O)c2ccc(Cc3cc4c(cc3C)C(C)(C)CCC4(C)C)o2)cn1` [Compound 525], the remaining activity at 10 µM was -9%.

With `Cc1cc2c(cc1Cc1ccc(C(=O)NCCc3cccc(C(F)(F)F)c3)o1)C(C)(C)CCC2(C)C` [Compound 526], the remaining activity at 10 µM came to 9%.

On to `Cc1cc2c(cc1Cc1ccc(C(=O)NCC3Nc4ccccc4N3)o1)C(C)(C)CCC2(C)C` [Compound 529], for which the remaining activity at 10 µM was -3%.

As to `Cc1cc2c(cc1Cc1ccc(C(=O)NCC3CCN(c4ccnc(Cl)n4)CC3)o1)C(C)(C)CCC2(C)C` [Compound 530], the remaining activity at 10 µM is -4%.

As to `Cc1cc2c(cc1Cc1ccc(C(=O)NCCCO)o1)C(C)(C)CCC2(C)C` [Compound 531], the remaining activity at 10 µM stood at 4%.

The experiment is the same for the next values; noted with them: substrate remaining; 10 uM compound; closer to zero = closer to 100% inhibition.
Turning to `Cc1cc2c(cc1Cc1ccc(C(=O)NCCc3c[nH]cn3)o1)C(C)(C)CCC2(C)C` [Compound 527], the “S%R 10 uM mGnRHR” value is 10%.

(Values after patent US7101878B1 (Agouron Pharmaceuticals, Inc., priority 1998, dated 2006).)
